The source of these data is patent US20090023775A1, “1-[2-(4-BENZYL-4-HYDROXY-PIPERIDIN-1 -YL )-ETHYL]-3-(2-METHYL-QUINOLIN- 4-YL)- UREA AS CRYSTALLINE SULFATE SALT” (Actelion Pharmaceuticals Ltd., priority 2004, published 2009).

Data set [1] can be described thus: Dynamic vapor sorption (DVS), gravimetric measurement under controlled relative humidity. The class given is physicochemical. As to the method:
X-ray diffraction patterns (XRD) were recorded on a Bruker D5000, using a Cu-Kalpha (1.5418 Å) source, a 40 kV -30 mA generator, in a range of 3 et 40° (2theta). DVS is performed as gravimetric measurement (10-30 mg of sample), at a given temperature, under controlled relative humidity. Measurements are performed on a SMS (Surface Measurement Systems) DVS 1000. First, the sample is dried (0% RH) under dry nitrogen at the experiment temperature. Then a cycle of relative humidity (RH) is applied to the sample (generally increase by steps e.g. 20, 40, 60 and 80% RH and decrease to 0% RH by the same steps). The duration of each step of RH is sufficient to reach a weight equilibrium.
Table 2 summarizes the results of two cycles (0 to 85% relative humidity) in a DVS measurement (40° C.) of 1-[2-(4-benzyl-4-hydroxy-piperidin-1-yl)-ethyl]-3-(2-methyl-quinolin-4-yl)-urea sulfate trihydrate described in Example 1.
Table 4 summarizes the results of three cycles (0 to 85% relative humidity) in a DVS measurement (25° C.) of 1-[2-(4-benzyl-4-hydroxy-piperidin-1-yl)-ethyl]-3-(2-methyl-quinolin-4-yl)-urea sulfate trihydrate described in Example 2.

Data set [2] is described as follows: Behaviour of the free base at higher temperature and higher humidity. The format is physicochemical. From the text:
Therefore, the said compound of formula I as free base is not suitable as a pharmaceutical product since it is not easy to handle in pharmaceutical preparations. In addition, large scale production and storage of the said compound of formula I causes problems due to the properties mentioned above.

Another data set deals with T1, urotensin II receptor (Homo sapiens, UniProt Q9UKP6).
T1 sequence (Q9UKP6 1-389): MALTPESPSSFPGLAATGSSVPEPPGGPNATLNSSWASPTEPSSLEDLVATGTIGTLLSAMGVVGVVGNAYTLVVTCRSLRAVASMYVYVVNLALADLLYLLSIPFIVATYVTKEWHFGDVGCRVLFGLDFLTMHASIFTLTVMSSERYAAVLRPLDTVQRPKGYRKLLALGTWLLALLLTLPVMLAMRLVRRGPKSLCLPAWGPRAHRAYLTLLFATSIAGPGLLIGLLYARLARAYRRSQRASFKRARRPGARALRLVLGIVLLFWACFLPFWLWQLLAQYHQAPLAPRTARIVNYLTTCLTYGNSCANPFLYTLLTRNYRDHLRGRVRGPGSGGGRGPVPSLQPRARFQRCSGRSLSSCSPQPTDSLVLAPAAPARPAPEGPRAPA
Conditions: Clozel et al., J. Pharmcol. Exp. Ther. 2004, 311, 204-212; cited from earlier work.

Where [3] appears, read: DVS 40° C., Cycle 1, target RH 0.0%.
The mark [4] stands for this setting: DVS 40° C., Cycle 1, target RH 20.0%.
Setting [5] is: DVS 40° C., Cycle 1, target RH 40.0%.
The mark [6] stands for this setting: DVS 40° C., Cycle 1, target RH 60.0%.
Where [7] appears, read: DVS 40° C., Cycle 1, target RH 85.0%.
Where [8] appears, read: DVS 40° C., Cycle 2, target RH 0.0%.
[9] abbreviates: DVS 40° C., Cycle 2, target RH 20.0%.
The mark [10] stands for this setting: DVS 40° C., Cycle 2, target RH 40.0%.
The mark [11] stands for this setting: DVS 40° C., Cycle 2, target RH 60.0%.
Where [12] appears, read: DVS 40° C., Cycle 2, target RH 85.0%.
The mark [13] stands for this setting: higher temperature and higher humidity.
The mark [14] stands for this setting: DVS 25° C., Cycle 1, target RH 0.0%.
Where [15] appears, read: DVS 25° C., Cycle 1, target RH 20.0%.
The mark [16] stands for this setting: DVS 25° C., Cycle 1, target RH 40.0%.
[17] abbreviates: DVS 25° C., Cycle 1, target RH 60.0%.
The mark [18] stands for this setting: DVS 25° C., Cycle 1, target RH 85.0%.
Setting [19] is: DVS 25° C., Cycle 2, target RH 0.0%.
Where [20] appears, read: DVS 25° C., Cycle 2, target RH 20.0%.
Setting [21] is: DVS 25° C., Cycle 2, target RH 40.0%.
The mark [22] stands for this setting: DVS 25° C., Cycle 2, target RH 60.0%.
The mark [23] stands for this setting: DVS 25° C., Cycle 2, target RH 85.0%.
[24] abbreviates: DVS 25° C., Cycle 3, target RH 0.0%.
Setting [25] is: DVS 25° C., Cycle 3, target RH 85.0%.

As for `Cc1cc(NC(=O)NCCN2CCC(O)(Cc3ccccc3)CC2)c2ccccc2n1.O.O.O.O=S(=O)(O)O` [Example 1, 1-[2-(4-Benzyl-4-hydroxy-piperidin-1-yl)-ethyl]-3-(2-methyl-quinolin-4-yl)-urea Sulfate Trihydrate], the “Change In Mass (%) Desorption” value in data set [1] (setting [3]) is recorded as −0.02%; in data set [1] (setting [4]), 9.97%; in data set [1] (setting [5]), 10.26%; in data set [1] (setting [6]) it was 10.40%; in data set [1] (setting [7]), 10.68%; in data set [1] (setting [8]), −0.02%. Besides, the “Change In Mass (%) Desorption” value in data set [1] (setting [9]) is on record as 9.98%; in data set [1] (setting [10]), 10.28%; in data set [1] (setting [11]), 10.42%; in data set [1] (setting [12]), 10.68%. Also, the “Change In Mass (%) Sorption” value is 0.00% in data set [1] (setting [3]); 9.71% in data set [1] (setting [4]); 10.23% in data set [1] (setting [5]); 10.42% in data set [1] (setting [6]); 10.68% in data set [1] (setting [7]); −0.02% in data set [1] (setting [8]). The “Change In Mass (%) Sorption” value in data set [1] (setting [9]) worked out at 9.81%; in data set [1] (setting [10]) it was 10.26%; in data set [1] (setting [11]), 10.42%; in data set [1] (setting [12]), 10.68%. Also, the “Change In Mass (%) Hysteresis” value in data set [1] (setting [4]) is 0.26%; in data set [1] (setting [5]) it was 0.03%; in data set [1] (setting [6]), −0.02%; in data set [1] (setting [9]) it was 0.17%; in data set [1] (setting [10]), 0.02%; in data set [1] (setting [11]), 0.01%.
Consider `Cc1cc(NC(=O)NCCN2CCC(O)(Cc3ccccc3)CC2)c2ccccc2n1` [formula I, 1-[2-(4-Benzyl-4-hydroxy-piperidin-1-yl)-ethyl]-3-(2-methyl-quinolin-4-yl)-urea], for which, in data set [2], the hygroscopicity entry is listed as “hygroscopic”. In data set [2] (setting [13]), the agglomeration entry is “agglomerates to a substance cake”; the colour stability result is “its colour changes at higher temperature and higher humidity”. In addition, the “urotensin II receptor antagonist activity” value on urotensin II receptor is “potent urotensin II receptor antagonist”.
`Cc1cc(NC(=O)NCCN2CCC(O)(Cc3ccccc3)CC2)c2ccccc2n1.O.O.O.O=S(=O)(O)O` [Example 2, 1-[2-(4-Benzyl-4-hydroxy-piperidin-1-yl)-ethyl]-3-(2-methyl-quinolin-4-yl)-urea Sulfate Trihydrate]: the “Change In Mass (%) Desorption” value is −0.01% in data set [1] (setting [14]); 11.94% in data set [1] (setting [15]); 12.31% in data set [1] (setting [16]); 12.49% in data set [1] (setting [17]); 12.70% in data set [1] (setting [18]); 0.00% in data set [1] (setting [19]). The “Change In Mass (%) Desorption” value in data set [1] (setting [20]) turned out to be 11.95%; in data set [1] (setting [21]), 12.32%; in data set [1] (setting [22]), 12.49%; in data set [1] (setting [23]), 12.70%; in data set [1] (setting [24]) it was 0.08%; in data set [1] (setting [25]) it was 12.69%. For the same compound, the “Change In Mass (%) Sorption” value is listed as 0.00% in data set [1] (setting [14]); 11.38% in data set [1] (setting [15]); 12.00% in data set [1] (setting [16]); 12.41% in data set [1] (setting [17]); 12.70% in data set [1] (setting [18]); −0.01% in data set [1] (setting [19]). In addition, the “Change In Mass (%) Sorption” value is recorded as 11.52% in data set [1] (setting [20]); 12.06% in data set [1] (setting [21]); 12.41% in data set [1] (setting [22]); 12.70% in data set [1] (setting [23]); 0.00% in data set [1] (setting [24]); 11.55% in data set [1] (DVS 25° C., Cycle 3, target RH 20.0%). For the same compound, the “Change In Mass (%) Sorption” value in data set [1] (DVS 25° C., Cycle 3, target RH 40.0%) is listed as 12.07%; in data set [1] (DVS 25° C., Cycle 3, target RH 60.0%), 12.40%; in data set [1] (setting [25]), 12.69%. The “Change In Mass (%) Hysteresis” value in data set [1] (setting [15]) is given as 0.57%; in data set [1] (setting [16]), 0.32%; in data set [1] (setting [17]), 0.08%; in data set [1] (setting [20]), 0.43%; in data set [1] (setting [21]) it was 0.25%; in data set [1] (setting [22]), 0.07%.
